# Key:
# Type in all cases: cell-based
# Escherichia coli 1507E = assay: MIC against standard strains (agar dilution); settings: standard strain Escherichia coli 1507E, 37° C., 18 to 20 hours, read-out: Minimum Inhibitory Concentration (MIC)
# Escherichia coli DC 2 = assay: MIC against standard strains (agar dilution); settings: Escherichia coli, DC2, read-out: Minimum Inhibitory Concentration (MIC)
# Klebsiella cxytoca 1082E = assay: MIC against standard strains (agar dilution); settings: standard strain Klebsiella cxytoca 1082E, 37° C., 18 to 20 hours, read-out: Minimum Inhibitory Concentration (MIC)
# Streptococcus pyogenes = assay: MIC against clinically isolated aerobic Gram-positive strains; settings: 15 strains
# Klebsiella pneumoniae = assay: MIC against clinically isolated aerobic Gram-negative strains; settings: 30 strains
# Escherichia coli TEM = assay: MIC against standard strains (agar dilution); settings: standard strain Escherichia coli TEM, 37° C., 18 to 20 hours, read-out: Minimum Inhibitory Concentration (MIC)
# Enterobacter cloacae = assay: MIC against clinically isolated aerobic Gram-negative strains; settings: 29 strains
# [1] = tested on: Staphylococcus aureus 503; assay: MIC against standard strains (agar dilution); settings: standard strain Staphylococcus aureus 503, 37° C., 18 to 20 hours, read-out: Minimum Inhibitory Concentration (MIC)
# Enterobacter cloacae P99 = assay: MIC against standard strains (agar dilution); settings: standard strain Enterobacter cloacae P99, 37° C., 18 to 20 hours, read-out: Minimum Inhibitory Concentration (MIC)
# [2] = tested on: Pseudomonas aeruginosa 1771M; assay: MIC against standard strains (agar dilution); settings: read-out: Minimum Inhibitory Concentration (MIC)
# Salmonella typhimurium = assay: MIC against standard strains (agar dilution); settings: Salmonella enterica, standard strain Salmonella typhimurium, 37° C., 18 to 20 hours, read-out: Minimum Inhibitory Concentration (MIC)
# Bacteroides fragilis = assay: MIC against clinically isolated anaerobic Gram-negative strains; settings: 34 strains
# Staphylococcus coagulase = assay: MIC against clinically isolated aerobic Gram-positive strains; settings: for MIC50 / MIC90: Staphylococcus; for MIC Range: clinically isolated Staphylococcus coagulase, 22 strains
# Providentia sp. = assay: MIC against clinically isolated aerobic Gram-negative strains; settings: 13 strains
# Proteus mirabilis = assay: as above; settings: 15 strains
# Clostridium difficile = assay: MIC against clinically isolated anaerobic Gram-positive strains; settings: 15 strains; for MIC50 / MIC90: Clostridioides difficile
# Experimental: The in vitro antibacterial activities of the sodium 3-carboxylate compound of the present invention prepared in the above Example were measured against standard strains (Table 1), clinically isolated aerobic Gram-positive strains (Table 2), clinically isolated aerobic Gram-negative strains (Table 3), clinically isolated anaerobic Gram-positive strains (Table 4) and clinically isolated anaerobic Gram-negative strains (Table 5) using Gram-positive bacteria such as Streptococcus and Staphylococcus, Gram-negative bacteria such as Escherichia, Salmonella, Krebsiella and Enterobacter. Imipenem (IPM), meropenem (MPM) and ertapenem (EPM) were used as control groups.
# The results are shown in Tables 1 to 5, and MIC50 and MIC90 represent the concentrations at which the test strain's growth was inhibited to the extents of 50% and 90%, respectively.
# [3] = tested on: Streptococcus faecium MD 8b; assay: MIC against standard strains (agar dilution); settings: Enterococcus faecium, MD8B, standard strain Streptococcus faecium MD 8b, 37° C., 18 to 20 hours, read-out: Minimum Inhibitory Concentration (MIC)
# [4] = tested on: Bacteroides thetaiotaomicron; assay: MIC against clinically isolated anaerobic Gram-negative strains; settings: for MIC50 / MIC90: Bacteroides thetaiotaomicron; for MIC Range: clinically isolated anaerobic Bacteroides thetaiotaomicron, 15 strains
# [5] = tested on: Pseudomonas aeruginosa 1771; assay: MIC against standard strains (agar dilution); settings: standard strain Pseudomonas aeruginosa 1771, 37° C., 18 to 20 hours, read-out: Minimum Inhibitory Concentration (MIC)
# Bacteroides spp. = assay: MIC against clinically isolated anaerobic Gram-negative strains; settings: 11 strains
# Streptococcus agalactiae = assay: MIC against clinically isolated aerobic Gram-positive strains; settings: 15 strains
# Citrobacter freundii = assay: MIC against clinically isolated aerobic Gram-negative strains; settings: 14 strains
# Serratia marcescens = assay: as above; settings: 14 strains
# Proteus vulgaris = assay: as above; settings: 15 strains
# Enterobacter aerogenes = assay: as above; settings: 14 strains; for MIC50 / MIC90: Klebsiella aerogenes
# [6] = tested on: Streptococcus pyogenes 308A; assay: MIC against standard strains (agar dilution); settings: standard strain Streptococcus pyogenes 308A, 37° C., 18 to 20 hours, read-out: Minimum Inhibitory Concentration (MIC)
# Streptococcus pneumoniae = assay: MIC against clinically isolated aerobic Gram-positive strains; settings: 22 strains
# [7] = tested on: Pseudomonas aeruginosa 1592E; assay: MIC against standard strains (agar dilution); settings: standard strain Pseudomonas aeruginosa 1592E, 37° C., 18 to 20 hours, read-out: Minimum Inhibitory Concentration (MIC)
structure (smiles),measurement,setting,value
"C[C@@H](O)[C@H]1C(=O)N2C(C(=O)O)=C(SCCN=CN)C[C@H]12 [IPM, Imipenem]",MIC,Escherichia coli 1507E,0.098 µg/mL
same,MIC,Escherichia coli DC 2,0.195 µg/mL
same,MIC,Klebsiella cxytoca 1082E,0.195 µg/mL
same,MIC50,Streptococcus pyogenes,< 0.008 µg/mL
same,MIC90,Streptococcus pyogenes,< 0.008 µg/mL
same,MIC Range,Streptococcus pyogenes,<0.008 µg/mL
same,MIC50,Klebsiella pneumoniae,0.12 µg/mL
same,MIC90,Klebsiella pneumoniae,0.5 µg/mL
same,MIC Range,Klebsiella pneumoniae,0.06 to 1 µg/mL
same,MIC,Escherichia coli TEM,0.098 µg/mL
same,MIC50,Enterobacter cloacae,0.25 µg/mL
same,MIC90,Enterobacter cloacae,1 µg/mL
same,MIC Range,Enterobacter cloacae,0.12 to 1 µg/mL
same,MIC,[1],0.007 µg/mL
same,MIC,Enterobacter cloacae P99,0.098 µg/mL
same,MIC,[2],0.195 µg/mL
same,MIC,Salmonella typhimurium,0.781 µg/mL
same,MIC50,Bacteroides fragilis,0.25 µg/mL
same,MIC90,Bacteroides fragilis,0.5 µg/mL
same,MIC Range,Bacteroides fragilis,0.06 to 2 µg/mL
same,MIC50,Staphylococcus coagulase,0.015 µg/mL
same,MIC90,Staphylococcus coagulase,0.015 µg/mL
same,MIC Range,Staphylococcus coagulase,0.008 to 0.03 µg/mL
same,MIC50,Providentia sp.,2 µg/mL
same,MIC90,Providentia sp.,2 µg/mL
same,MIC Range,Providentia sp.,0.25 to 4 µg/mL
same,MIC50,Proteus mirabilis,2 µg/mL
same,MIC90,Proteus mirabilis,2 µg/mL
same,MIC Range,Proteus mirabilis,0.25 to 4 µg/mL
same,MIC Range,Clostridium difficile,4 to 16 µg/mL
same,MIC50,Clostridium difficile,8 µg/mL
same,MIC90,Clostridium difficile,8 µg/mL
same,MIC,[3],0.781 µg/mL
same,MIC50,[4],0.5 µg/mL
same,MIC90,[4],4 µg/mL
same,MIC Range,[4],0.12 to 16 µg/mL
same,MIC,[5],0.781 µg/mL
same,MIC50,Bacteroides spp.,0.5 µg/mL
same,MIC90,Bacteroides spp.,1 µg/mL
same,MIC Range,Bacteroides spp.,0.25 to 2 µg/mL
same,MIC50,Streptococcus agalactiae,0.008 µg/mL
same,MIC90,Streptococcus agalactiae,0.015 µg/mL
same,MIC Range,Streptococcus agalactiae,0.008 to 0.015 µg/mL
same,MIC50,Citrobacter freundii,0.12 µg/mL
same,MIC90,Citrobacter freundii,0.5 µg/mL
same,MIC Range,Citrobacter freundii,0.06 to 0.5 µg/mL
same,MIC50,Serratia marcescens,0.25 µg/mL
same,MIC90,Serratia marcescens,2 µg/mL
same,MIC Range,Serratia marcescens,0.12 to 4 µg/mL
same,MIC50,Proteus vulgaris,1 µg/mL
same,MIC90,Proteus vulgaris,2 µg/mL
same,MIC Range,Proteus vulgaris,0.25 to 2 µg/mL
same,MIC Range,Enterobacter aerogenes,0.12 to 0.5 µg/mL
same,MIC50,Enterobacter aerogenes,0.12 µg/mL
same,MIC90,Enterobacter aerogenes,0.5 µg/mL
same,MIC,[6],0.004 µg/mL
same,MIC50,Streptococcus pneumoniae,0.12 µg/mL
same,MIC90,Streptococcus pneumoniae,0.25 µg/mL
same,MIC Range,Streptococcus pneumoniae,0.008 to 0.5 µg/mL
same,MIC,[7],0.781 µg/mL
"C[C@@H](O)[C@H]1C(=O)N2C(C(=O)O)=C(S[C@@H]3CN[C@H](C(=O)N(C)C)C3)[C@H](C)[C@H]12 [MPM, meropenem]",MIC,Escherichia coli 1507E,0.025 µg/mL
same,MIC,Escherichia coli DC 2,0.025 µg/mL
same,MIC,Klebsiella cxytoca 1082E,0.049 µg/mL
same,MIC50,Streptococcus pyogenes,< 0.008 µg/mL
same,MIC90,Streptococcus pyogenes,< 0.008 µg/mL
same,MIC Range,Streptococcus pyogenes,<0.008 µg/mL
same,MIC50,Klebsiella pneumoniae,0.03 µg/mL
same,MIC90,Klebsiella pneumoniae,0.06 µg/mL
same,MIC Range,Klebsiella pneumoniae,0.015 to 0.06 µg/mL
same,MIC,Escherichia coli TEM,0.025 µg/mL
same,MIC50,Enterobacter cloacae,0.03 µg/mL
same,MIC90,Enterobacter cloacae,0.25 µg/mL
same,MIC Range,Enterobacter cloacae,0.015 to 0.5 µg/mL
same,MIC,[1],0.098 µg/mL
same,MIC,Enterobacter cloacae P99,0.049 µg/mL
same,MIC,[2],0.098 µg/mL
same,MIC,Salmonella typhimurium,0.049 µg/mL
same,MIC50,Bacteroides fragilis,0.12 µg/mL
same,MIC90,Bacteroides fragilis,0.25 µg/mL
same,MIC Range,Bacteroides fragilis,0.12 to 4 µg/mL
same,MIC50,Staphylococcus coagulase,0.06 µg/mL
same,MIC90,Staphylococcus coagulase,0.12 µg/mL
same,MIC Range,Staphylococcus coagulase,0.03 to 0.5 µg/mL
same,MIC50,Providentia sp.,0.06 µg/mL
same,MIC90,Providentia sp.,2 µg/mL
same,MIC Range,Providentia sp.,0.015 to 2 µg/mL
same,MIC50,Proteus mirabilis,0.06 µg/mL
same,MIC90,Proteus mirabilis,0.06 µg/mL
same,MIC Range,Proteus mirabilis,0.015 to 0.06 µg/mL
same,MIC Range,Clostridium difficile,1 to 2 µg/mL
same,MIC50,Clostridium difficile,1 µg/mL
same,MIC90,Clostridium difficile,2 µg/mL
same,MIC,[3],12.5 µg/mL
same,MIC50,[4],0.25 µg/mL
same,MIC90,[4],0.5 µg/mL
same,MIC Range,[4],0.25 to 2 µg/mL
same,MIC,[5],0.391 µg/mL
same,MIC50,Bacteroides spp.,0.5 µg/mL
same,MIC90,Bacteroides spp.,0.5 µg/mL
same,MIC Range,Bacteroides spp.,0.12 to 0.5 µg/mL
same,MIC50,Streptococcus agalactiae,0.03 µg/mL
same,MIC90,Streptococcus agalactiae,0.03 µg/mL
same,MIC Range,Streptococcus agalactiae,0.03 µg/mL
same,MIC50,Citrobacter freundii,0.015 µg/mL
same,MIC90,Citrobacter freundii,0.03 µg/mL
same,MIC Range,Citrobacter freundii,0.015 to 0.06 µg/mL
same,MIC50,Serratia marcescens,0.03 µg/mL
same,MIC90,Serratia marcescens,8 µg/mL
same,MIC Range,Serratia marcescens,0.03 to 8 µg/mL
same,MIC50,Proteus vulgaris,0.06 µg/mL
same,MIC90,Proteus vulgaris,0.06 µg/mL
same,MIC Range,Proteus vulgaris,0.03 to 0.06 µg/mL
same,MIC Range,Enterobacter aerogenes,0.015 to 0.06 µg/mL
same,MIC50,Enterobacter aerogenes,0.03 µg/mL
same,MIC90,Enterobacter aerogenes,0.06 µg/mL
same,MIC,[6],0.007 µg/mL
same,MIC50,Streptococcus pneumoniae,0.5 µg/mL
same,MIC90,Streptococcus pneumoniae,0.5 µg/mL
same,MIC Range,Streptococcus pneumoniae,0.008 to 0.5 µg/mL
same,MIC,[7],0.098 µg/mL

# Source: patent publication US20080039438A1, “1B-Methylcarbapenem Derivative and Process for the Preparation Thereof” (Korea Institute of Science and Technology, priority 2004, published 2008)
